# Assay results from patent US20200022995A1, “Novel Immunodulating Small Molecules” (AyuVis Research, Inc., priority 2018, published 2020).
# Key:
# TLR7/8 = assay: IL-1β ELISA in hPBMC, alone or with TLR7/8 ligand CL075; type: cell-based, human
# From the text: Compound 8 modulates the TLR7/8 activities in a concentration dependent manner.
# TLR1/2 = biological target: T1, TLR1/2 (Homo sapiens, UniProt O60603); assay: IL-6 ELISA in hPBMC with TLR1/2 ligand Pam3CSK4; type: cell-based; details: 0.1 μM to <1 μM, 24 h
# T1 construct: downregulate the IL-6 protein level in hPBMC after 24 h; endogenous in cells; host or cells: hPBMC
# From the text: Compound 8 modulates the TLR1/2 activities in a concentration dependent manner.
# HUVECs [1] = assay: Anti-angiogenic activity, VEGF induced tube formation in HUVECs; type: cell-based, human; details: VEGF 100 ng/mL
# Protocol: Selected TLR2/4 antagonist compounds 2, 6, 7, 8, 14, 17 and 32 were evaluated for anti-angiogenic activity using the Tube Formation kit (Cat #3470-096-K). VEGF (100 ng/mL) was used as positive control. These compounds have potential applications in diseases associated with pathological angiogenesis such as solid tumor, […], diabetic retinopathy as well as AMD.
# [2] = test system: hyperoxia-induced lung injury in mice; assay: Hyperoxia induced ALI model; type: in vivo, C57BL/6 mice; details: IP, 10 mg/kg
# Protocol: (§1) Male C57BL/6 mice (Jackson Laboratories,) 12-15 weeks old, 25-28 gms, housed up to 5 per cage were used.
# Hyperoxia induced ALI model: The ARDS model consists of exposing adult mice in 100% oxygen for 48 h followed by injecting with test compounds. Adult mice (N=5) were housed in plexi chamber with a constant and continuous supply of 100% oxygen for 48 h. […] The mice were sacrificed after 48 h to harvest lung tissues and collect (BAL) fluid.
# [3] = test system: E. coli, P. aeruginosa, A. baumanni, MRSA; assay: Broth dilution assay against gram negative and gram positive bacteria; type: cell-based
# TLR4 = TLR4 (Homo sapiens, UniProt O00206); assay: IL-1β ELISA in hPBMC, alone or with TLR4 ligand LPS; type: cell-based; set-up: endogenous in cells
# From the text: Compound 8 modulates the TLR4 activities in a concentration dependent manner.
# THP-1 cells = assay: Monocyte differentiation, phagocytosis and intracellular killing of Pseudomonas aeruginosa in THP-1 cells; type: cell-based, human
# From the text: Two of these compounds 8 and 32 stimulated monocyte differentiation into macrophages, increased phagocytosis of Pseudomonas aeruginosa (FIG. 18) and increased intracellular killing of bacteria (FIG. 19). These compounds have potential to be used as vaccine adjuvants and in combination with existing antibiotic for prophylactic treatment such as in cystic fibrosis patients.
# TLR9 = biological target: T2, TLR9 (Homo sapiens, UniProt Q9NR96); assay: IFN-α ELISA in hPBMC with TLR9 ligand ODN2216; type: cell-based; details: 48 h
# T2 construct: endogenous in cells; host or cells: hPBMC
# T2 sequence (Q9NR96 26-1032): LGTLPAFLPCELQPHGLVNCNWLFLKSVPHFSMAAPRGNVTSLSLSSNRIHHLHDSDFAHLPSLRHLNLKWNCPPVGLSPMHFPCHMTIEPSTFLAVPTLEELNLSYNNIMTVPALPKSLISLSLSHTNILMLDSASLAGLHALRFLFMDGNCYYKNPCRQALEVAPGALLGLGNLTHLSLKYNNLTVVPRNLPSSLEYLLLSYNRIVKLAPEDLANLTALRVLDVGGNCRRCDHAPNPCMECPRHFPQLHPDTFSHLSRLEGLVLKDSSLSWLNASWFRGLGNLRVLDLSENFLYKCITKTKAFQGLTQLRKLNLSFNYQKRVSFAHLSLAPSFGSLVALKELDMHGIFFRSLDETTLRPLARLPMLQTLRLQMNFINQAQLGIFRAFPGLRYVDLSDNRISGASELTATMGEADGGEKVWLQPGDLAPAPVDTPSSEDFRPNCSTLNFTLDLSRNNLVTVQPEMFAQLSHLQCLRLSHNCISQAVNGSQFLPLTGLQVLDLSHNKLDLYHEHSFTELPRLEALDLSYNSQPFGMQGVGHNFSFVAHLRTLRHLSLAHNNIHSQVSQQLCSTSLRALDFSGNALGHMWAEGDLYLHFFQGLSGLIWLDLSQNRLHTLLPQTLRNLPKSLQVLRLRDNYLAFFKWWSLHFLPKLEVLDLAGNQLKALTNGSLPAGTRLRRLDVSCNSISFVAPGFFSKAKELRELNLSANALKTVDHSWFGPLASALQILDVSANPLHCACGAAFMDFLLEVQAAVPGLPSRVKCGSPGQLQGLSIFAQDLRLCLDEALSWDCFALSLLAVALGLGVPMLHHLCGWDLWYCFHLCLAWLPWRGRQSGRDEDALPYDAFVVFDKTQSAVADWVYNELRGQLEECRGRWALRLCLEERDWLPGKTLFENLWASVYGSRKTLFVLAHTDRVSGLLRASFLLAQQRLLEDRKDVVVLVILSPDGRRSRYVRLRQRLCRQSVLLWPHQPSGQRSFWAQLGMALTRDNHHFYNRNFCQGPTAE
# Protocol: Compound 8 antagonizes the TLR9 activities and downregulates the production of IFN-α in combination with TLR9 ligand ODN2216 in hPBMC after 48 h of treatment as detected by ELISA (FIG. 11).
# HUVECs [4] = assay: Cytotoxicity in HUVECs (MTT); type: cell-based, human; details: 100 μM, 24 h
# Protocol: Selected TLR2/4 antagonist compounds 2, 6, 7, 8, 14, 17 and 32 were evaluated for cytotoxicity in HUVECs at 100 μM concentration. The cells were treated with compounds and incubated for 24 h. Cell viability was assessed using MTT cell proliferation kit (Promega). All the compounds were not toxic to HUVECs (FIG. 15).
# [5] = test system: LPS-induced lung injury in mice; assay: LPS-induced ALI model; type: in vivo, C57BL/6 mice; details: IP
# From the text: as §1
# The lungs were sectioned for histopathological assessment after H/E staining while the BAL fluid was used to detect total cell counts (neutrophils and macrophages) and measure protein (that exudes by leakage).
# neonatal pups with BPD = assay: Hyperoxia mouse model of BPD (newborn pups); type: in vivo
# Chain of TLR4 (O00206 24-839): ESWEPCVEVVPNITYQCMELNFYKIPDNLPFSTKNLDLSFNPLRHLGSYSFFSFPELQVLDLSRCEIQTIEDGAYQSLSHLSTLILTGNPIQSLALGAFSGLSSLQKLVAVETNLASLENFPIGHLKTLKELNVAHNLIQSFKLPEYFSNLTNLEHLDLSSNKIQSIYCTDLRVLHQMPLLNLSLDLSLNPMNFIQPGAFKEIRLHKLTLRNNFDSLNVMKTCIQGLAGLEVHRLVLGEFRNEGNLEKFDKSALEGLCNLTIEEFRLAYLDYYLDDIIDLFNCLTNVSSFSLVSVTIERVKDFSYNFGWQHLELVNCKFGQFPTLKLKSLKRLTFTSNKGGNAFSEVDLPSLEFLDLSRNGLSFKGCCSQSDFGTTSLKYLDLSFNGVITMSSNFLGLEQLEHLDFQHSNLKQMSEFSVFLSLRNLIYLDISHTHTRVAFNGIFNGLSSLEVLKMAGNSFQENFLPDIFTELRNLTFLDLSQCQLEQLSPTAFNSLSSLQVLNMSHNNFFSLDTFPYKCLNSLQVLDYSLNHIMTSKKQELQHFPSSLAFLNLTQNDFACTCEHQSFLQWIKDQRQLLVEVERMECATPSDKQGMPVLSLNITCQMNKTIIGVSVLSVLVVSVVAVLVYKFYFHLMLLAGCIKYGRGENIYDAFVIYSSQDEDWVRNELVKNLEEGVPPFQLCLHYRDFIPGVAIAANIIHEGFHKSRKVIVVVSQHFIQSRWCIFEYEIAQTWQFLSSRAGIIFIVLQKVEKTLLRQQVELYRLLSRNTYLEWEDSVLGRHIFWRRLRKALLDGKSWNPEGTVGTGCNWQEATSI
# T1 sequence (O60603 21-784): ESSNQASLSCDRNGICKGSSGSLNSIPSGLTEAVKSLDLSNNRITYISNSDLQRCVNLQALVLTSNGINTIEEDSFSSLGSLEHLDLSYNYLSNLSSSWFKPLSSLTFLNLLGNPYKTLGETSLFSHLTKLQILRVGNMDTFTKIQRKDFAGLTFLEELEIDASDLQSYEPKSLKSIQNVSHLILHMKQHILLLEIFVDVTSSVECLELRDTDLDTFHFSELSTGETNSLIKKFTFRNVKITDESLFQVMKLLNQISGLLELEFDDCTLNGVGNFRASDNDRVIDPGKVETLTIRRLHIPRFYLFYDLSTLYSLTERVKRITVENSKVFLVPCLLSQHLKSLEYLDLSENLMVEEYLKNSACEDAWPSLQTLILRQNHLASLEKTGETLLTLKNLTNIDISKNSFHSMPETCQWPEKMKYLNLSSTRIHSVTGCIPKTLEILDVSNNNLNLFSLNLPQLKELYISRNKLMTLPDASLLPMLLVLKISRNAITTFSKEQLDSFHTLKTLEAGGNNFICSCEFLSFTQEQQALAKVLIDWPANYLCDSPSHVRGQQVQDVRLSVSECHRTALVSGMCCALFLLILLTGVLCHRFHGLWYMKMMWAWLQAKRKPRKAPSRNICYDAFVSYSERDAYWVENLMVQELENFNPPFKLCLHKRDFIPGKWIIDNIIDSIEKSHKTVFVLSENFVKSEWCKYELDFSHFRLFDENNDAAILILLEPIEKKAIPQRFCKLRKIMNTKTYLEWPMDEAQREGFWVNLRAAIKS
smiles,measurement,setting,value
"CC(=O)N[C@H]1[C@H](Oc2ccc([N+](=O)[O-])cc2)O[C@H](CO)[C@@H](O)[C@@H]1O [Compound 8, p-Nitrophenyl 2-acetamido-2-deoxy-β-D-glucopyranoside]",IL-1β protein level,"TLR7/8; 0.1 μM to <1 μM, alone or with CL075, hPBMC, 24 h, ELISA",downregulate
same,production of IL-1β,"TLR7/8; 1.0 μM, alone and with CL075, hPBMC",significantly stimulated
same,IL-6 protein level,TLR1/2,downregulate
same,VEGF induced tube formation,HUVECs [1],significantly deceased
same,protection against hyperoxia induced lung injury,[2]; 100% oxygen 48 h,significant protection
same,hyperoxia-induced lung inflammation,[2]; mice,ameliorated
same,MIC90,"[3]; compound alone, range over the bacteria screened",50 to 200 µg/mL
same,MIC,[3]; in combination with colistin,3.1 to 6.25 µg/mL
same,IL-1β protein level,"TLR4; 0.1 μM to <1 μM, alone or with LPS, 24 h, ELISA",downregulate
same,production of IL-1β,"TLR4; 1.0 μM, alone and with LPS",significantly stimulated
same,monocyte differentiation into macrophages,THP-1 cells,stimulated
same,intracellular killing of bacteria,"THP-1 cells; Pseudomonas aeruginosa, THP-1 cells",increased
same,phagocytosis of Pseudomonas aeruginosa,THP-1 cells; THP-1 cells,increased
same,production of IFN-α,TLR9,downregulates
same,cytotoxicity in HUVECs,HUVECs [4],not toxic
same,protection against LPS induced lung injury,[5]; 10 mg/kg at 4 h and 12 h post LPS,significant protection
same,LPS-induced lung inflammation,"[5]; 10 mg/kg, mice",ameliorated
same,hyperoxia induced BPD in mouse pups,"neonatal pups with BPD; IP and IV, saline solution, 5 mg/kg or 10 mg/kg on PN2 and PN4",prevent
same,"chord length, septal thickness and radial alveolar count of mouse lungs",neonatal pups with BPD; IP injection,improvement
same,inflammatory cytokines in lung tissue and serum,neonatal pups with BPD; after injection,decreased
